According to EPA's ToxValDB 9.5:
Values joined by “and” are separate entries in the source; they are usually repeats but may differ in a detail not shown here. Equal entries are not always repeated.

Tested on: Rattus norvegicus
Conditions: Wistar
[1] = short-term, duration: 2 weeks, inhalation, F, generation: P0, P0: Lung: Lung Weight, Relative
[2] = short-term, duration: 2 weeks, inhalation, M, generation: P0, P0: Lung: Lung Weight, Relative
[3] = short-term, duration: 28 days, inhalation, F, Teeth: Incisors, Discolored
[4] = short-term, duration: 28 days, inhalation, M, Teeth: Incisors, Discolored
[5] = short-term, duration: 28 days, oral, gavage, F, Blood: Red Cell Distribution Width (RDW) + Liver: Total Cholesterol (CHOL)
[6] = short-term, duration: 28 days, oral, gavage, M, Blood: Hemoglobin (HGB) + Liver: Total Bilirubin (TBILI)

F/C(=C(/F)C(F)(C(F)(F)F)C(F)(F)F)C(F)(F)F [(E)-Perfluoro(4-methyl-2-pentene)]
LOAEL (acute, duration: 4 hours, inhalation, F, Central Nervous System: Hunched Posture + Central Nervous System: Ruffled Fur + Lung: Lung, Non-Neoplastic Lesions + Lung: Tachypnea + Whole…): 21.7 mg/L | LOAEL (acute, duration: 4 hours, inhalation, M, Central Nervous System: Frightened behavior + Central Nervous System: Ruffled Fur + Central Nervous System: Tremor + Lung: Lung, Non-…): 21.7 mg/L | NOAEL (developmental, duration: 2 weeks, inhalation, M/F, generation: F1, F1: Whole Body: Clinical Signs + F1: Whole Body: Fetal Alterations, Total + F1: Whole Body: Male Pups per Pups Sexed + F1: Whole Body: Pup …): 4290 mg/m3 and 4300 mg/m3 | NOAEL (reproduction developmental, duration: 2 weeks, inhalation, F, generation: P0, P0: Ovary: Corpora Lutea + P0: Uterus: Implantation + P0: Whole Body: Dams with Stillborn Pups + P0: Whole Body: Days of Cohabitation + P0: …): 4290 mg/m3 and 4300 mg/m3 | NOAEL (reproduction developmental, duration: 2 weeks, inhalation, M, generation: P0, P0: Whole Body: Days of Cohabitation + P0: Whole Body: Fertility Index + P0: Whole Body: Percent Mating): 4290 mg/m3 and 4300 mg/m3 | NOAEL (short-term, duration: 2 weeks, inhalation, F, generation: P0, P0: Kidney: Kidney, Faded + P0: Liver: Liver Weight, Absolute + P0: Liver: Liver Weight, Relative + P0: Lung: Lung Weight, Absolute + P0: …): 4290 mg/m3 and 4300 mg/m3 | LOAEL (short-term, duration: 2 weeks, inhalation, F, generation: P0, P0: Kidney: Kidney, Faded + P0: Thymus: Thymus, Small + P0: Whole Body: Body Weight Change + P0: Whole Body: Body Weight, Absolute + P0: …): 9200 mg/m3 | LOAEL [1]: 4290 mg/m3 and 4300 mg/m3 | NOAEL [1]: 1840 mg/m3 | NOAEL (short-term, duration: 2 weeks, inhalation, M, generation: P0, P0: Epididymis: Epididymis Weight, Absolute + P0: Epididymis: Epididymis Weight, Relative + P0: Epididymis: Epididymis, Duct, Exfoliated …): 4290 mg/m3 and 4300 mg/m3 | LOAEL (short-term, duration: 2 weeks, inhalation, M, generation: P0, P0: Epididymis: Epididymis, Small + P0: Kidney: Kidney, Faded + P0: Prostate: Prostate, Small + P0: Seminal Vesicle: Seminal Vesicle, Small…): 9200 mg/m3 | LOAEL [2]: 4290 mg/m3 and 4300 mg/m3 | NOAEL [2]: 1840 mg/m3 | NOAEL (short-term, duration: 2 weeks, inhalation, M, generation: P0, P0: Whole Body: Feed Consumption, Absolute): 9200 mg/m3 | NOAEL (short-term, duration: 28 days, inhalation, F, Adrenal: Adrenal Gland Weight, Absolute + Blood: Albumin/Globulin (A/G) Ratio + Blood: Hemoglobin (HGB) + Blood: Mean Cell Volume (MCV) + …): 3070 mg/m3 | LOAEL [3]: 3070 mg/m3 | NOAEL [3]: 1230 mg/m3 and 1220 mg/m3 | NOAEL (short-term, duration: 28 days, inhalation, M, Adrenal: Adrenal Gland Weight, Absolute + Blood: Albumin/Globulin (A/G) Ratio + Blood: Hemoglobin (HGB) + Blood: Mean Cell Volume (MCV) + …): 3070 mg/m3 | LOAEL [4]: 3070 mg/m3 | NOAEL [4]: 1230 mg/m3 and 1220 mg/m3 | NOAEL (short-term, duration: 28 days, oral, gavage, F, Adrenal: Adrenal Gland Histopathology + Blood: Mean Cell Hemoglobin (MCH) + Blood: Platelet Count (PLT) + Bone: Femur Histopathology + Bone…): 450 mg/kg-day | LOAEL (short-term, duration: 28 days, oral, gavage, F, Blood: Hematocrit (HCT) + Blood: Hemoglobin (HGB), Recovery + Blood: Mean Cell Volume (MCV) + Blood: Red Blood Cell (RBC) + Calcium (CA) + …): 450 mg/kg-day | NOAEL (short-term, duration: 28 days, oral, gavage, F, Blood: Hematocrit (HCT) + Blood: Mean Cell Volume (MCV) + Blood: Red Blood Cell (RBC) + Calcium (CA) + Chloride (CL) + Gamma-glutamyl …): 150 mg/kg-day | LOAEL (short-term, duration: 28 days, oral, gavage, F, Blood: Hemoglobin (HGB) + Blood: Mean Cell Hemoglobin Concentration (MCHC) + Liver: Liver Weight, Absolute + Spleen: Spleen Weight, Absolute): 50 mg/kg-day | LOAEL [5]: 150 mg/kg-day | NOAEL [5]: 50 mg/kg-day | NOAEL (short-term, duration: 28 days, oral, gavage, M, Adrenal: Adrenal Gland Histopathology + Bone: Femur Histopathology + Bone: Sternum Histopathology + Brain: Brain Weight, Absolute, Recovery…): 450 mg/kg-day | LOAEL (short-term, duration: 28 days, oral, gavage, M, Blood: Hematocrit (HCT) + Blood: Mean Cell Hemoglobin Concentration (MCHC), Recovery + Blood: Mean Cell Volume (MCV) + Blood: Platelet Count…): 450 mg/kg-day | NOAEL (short-term, duration: 28 days, oral, gavage, M, Blood: Hematocrit (HCT) + Blood: Mean Cell Volume (MCV) + Blood: Platelet Count (PLT) + Blood: Red Blood Cell (RBC) + Blood: Red Cell …): 150 mg/kg-day | LOAEL [6]: 150 mg/kg-day | NOAEL [6]: 50 mg/kg-day | LOAEL (short-term, duration: 28 days, oral, gavage, M, Blood: Mean Cell Hemoglobin (MCH) + Blood: Mean Cell Hemoglobin Concentration (MCHC) + Brain: Brain Weight, Absolute + Testis: Testis Weight…): 50 mg/kg-day
